In BigSolDB 2.1:

COc1ccc2nc(SCc3ncc(C)c(OC)c3C)[nH]c2c1
solubility (mole fraction)
Conditions | in acetone | in ethanol | in ethyl acetate | in isopropanol | in methanol | in n-butanol | in n-propanol
280.35 K | 0.005 | 0.0144 | 0.0033 | 0.0032 | 0.0127 | 0.0103 | 0.0076
284.35 K | 0.0065 | 0.0189 | 0.004 | 0.0044 | 0.0178 | 0.0134 | 0.0101
288.15 K | 0.0083 | 0.0248 | 0.0049 | 0.0058 | 0.0239 | 0.0171 | 0.0134
292.25 K | 0.0108 | 0.0323 | 0.0058 | 0.0079 | 0.0322 | 0.0218 | 0.0178
296.65 K | 0.014 | 0.0412 | 0.0073 | 0.0108 | 0.0442 | 0.0292 | 0.0234
300.25 K | 0.0172 | 0.0511 | 0.0085 | 0.014 | 0.0559 | 0.0356 | 0.0296
303.15 K | 0.0203 | 0.0606 | 0.0098 | 0.0172 | 0.0668 | 0.0425 | 0.0359
307.65 K | 0.0263 | 0.0775 | 0.0122 | 0.0234 | 0.0887 | 0.0549 | 0.047
311.15 K | 0.0319 | 0.0946 | 0.0142 | 0.0286 | 0.11 | 0.0661 | 0.0567
315.15 K | 0.039 | 0.115 | 0.0165 | 0.037 | 0.138 | 0.0824 | 0.0713
319.65 K | 0.0496 | 0.141 | 0.0208 | 0.0482 | 0.172 | 0.104 | 0.0914
